Test results taken from ChEMBL document CHEMBL4622870, “Design, synthesis and evaluation of hydrazine and acyl hydrazone derivatives of 5-pyrrolidin-2-one as antifungal agents” (Bioorg Med Chem Lett, 2020).

What was measured:
Paecilomyces variotii [1] = assay: Antifungal activity against Paecilomyces variotii assessed as fungal growth inhibition by micro-dilution method; format: functional
Fusarium solani [2] = assay: Antifungal activity against Fusarium solani assessed as fungal growth inhibition by micro-dilution method; format: functional
Alternaria alternata [3] = assay: Antifungal activity against Alternaria alternata assessed as fungal growth inhibition at 100 ug/ml by micro-dilution method relative to control; format: functional; conditions: read-out: GI
Penicillium ochrochloron [4] = assay: Antifungal activity against Penicillium ochrochloron assessed as fungal growth inhibition at 100 ug/ml by micro-dilution method relative to control; format: functional; conditions: read-out: GI
HEK293 = assay: Cytotoxicity against human HEK293 cells assessed as effect on cell viability measured after 72 hrs by MTS assay; format: cell-based; conditions: hek293, 72 h
Candida tropicalis [5] = assay: Antifungal activity against Candida tropicalis assessed as fungal growth inhibition at 100 ug/ml by micro-dilution method relative to control; format: functional; conditions: read-out: GI
Sclerotinia sclerotiorum [6] = assay: Antifungal activity against Sclerotinia sclerotiorum assessed as fungal growth inhibition at 100 ug/ml by micro-dilution method relative to control; format: functional; conditions: read-out: GI
Botrytis cinerea = assay: Antifungal activity against Botrytis cinerea assessed as fungal growth inhibition at 100 ug/ml by micro-dilution method relative to control; format: functional; conditions: read-out: GI
Fusarium solani [7] = assay: Antifungal activity against Fusarium solani assessed as fungal growth inhibition at 100 ug/ml by micro-dilution method relative to control; format: functional; conditions: read-out: GI
Paecilomyces variotii [8] = assay: Antifungal activity against Paecilomyces variotii assessed as fungal growth inhibition at 100 ug/ml by micro-dilution method relative to control; format: functional; conditions: read-out: GI
[9] = test system: Cladosporium cladosporioides; assay: Antifungal activity against Cladosporium cladosporioides assessed as fungal growth inhibition at 100 ug/ml by micro-dilution method relative to control; format: functional; conditions: read-out: GI
Geotrichum candidum [10] = assay: Antifungal activity against Geotrichum candidum assessed as fungal growth inhibition at 100 ug/ml by micro-dilution method relative to control; format: functional; conditions: read-out: GI
Aspergillus oryzae [11] = assay: Antifungal activity against Aspergillus oryzae assessed as fungal growth inhibition at 100 ug/ml by micro-dilution method relative to control; format: functional; conditions: read-out: GI
Kluyveromyces marxianus [12] = assay: Antifungal activity against Candida pseudotropicalis assessed as fungal growth inhibition at 100 ug/ml by micro-dilution method relative to control; format: functional; conditions: read-out: GI
Pichia kudriavzevii = assay: Antifungal activity against Candida krusei assessed as fungal growth inhibition at 100 ug/ml by micro-dilution method relative to control; format: functional; conditions: read-out: GI
Candida tropicalis [13] = assay: Antifungal activity against Candida tropicalis assessed as fungal growth inhibition by micro-dilution method; format: functional
Sclerotinia sclerotiorum [14] = assay: Antifungal activity against Sclerotinia sclerotiorum assessed as fungal growth inhibition by micro-dilution method; format: functional
Penicillium ochrochloron [15] = assay: Antifungal activity against Penicillium ochrochloron assessed as fungal growth inhibition by micro-dilution method; format: functional
Kluyveromyces marxianus [16] = assay: Antifungal activity against Candida pseudotropicalis assessed as fungal growth inhibition by micro-dilution method; format: functional
Aspergillus oryzae [17] = assay: Antifungal activity against Aspergillus oryzae assessed as fungal growth inhibition by micro-dilution method; format: functional
Alternaria alternata [18] = assay: Antifungal activity against Alternaria alternata assessed as fungal growth inhibition by micro-dilution method; format: functional
Geotrichum candidum [19] = assay: Antifungal activity against Geotrichum candidum assessed as fungal growth inhibition by micro-dilution method; format: functional
[20] = test system: Cladosporium cladosporioides; assay: Antifungal activity against Cladosporium cladosporioides assessed as fungal growth inhibition by micro-dilution method; format: functional
Geotrichum candidum [21] = assay: Antifungal activity against Geotrichum candidum assessed as fungal growth inhibition at 50 ug/ml by micro-dilution method relative to control; format: functional; conditions: read-out: GI

Compound	MIC50 (Fusarium solani [2]) [µg/mL]	MIC50 (Penicillium ochrochloron [15]) [µg/mL]	MIC50 (Geotrichum candidum [19]) [µg/mL]	inhibition of growth at 100 µg/mL (Alternaria alternata [3]) [%]	inhibition of growth at 100 µg/mL (Penicillium ochrochloron [4]) [%]	Activity (HEK293)	inhibition of growth at 100 µg/mL (Candida tropicalis [5]) [%]	inhibition of growth at 100 µg/mL (Sclerotinia sclerotiorum [6]) [%]	inhibition of growth at 100 µg/mL (Botrytis cinerea) [%]	inhibition of growth at 100 µg/mL (Fusarium solani [7]) [%]	inhibition of growth at 100 µg/mL (Paecilomyces variotii [8]) [%]	inhibition of growth at 100 µg/mL [9] [%]	inhibition of growth at 100 µg/mL (Geotrichum candidum [10]) [%]	inhibition of growth at 100 µg/mL (Aspergillus oryzae [11]) [%]	inhibition of growth at 100 µg/mL (Kluyveromyces marxianus [12]) [%]	inhibition of growth at 100 µg/mL (Pichia kudriavzevii) [%]	further results
CN(NC1CCC(=O)N1)c1ccccc1 (racemic)	31	–	–	0	56	Non-Toxic	20	46	20	100	70	42	18	45	61	20	MIC50 (Paecilomyces variotii [1]): 14.8 µg/mL
O=C1CCC(NNc2ccccc2)N1 (racemic)	18.5	4.4	–	82	90	Non-Toxic	89	76	62	100	78	44	0	71	96	35	MIC50 (Paecilomyces variotii [1]): 7.8 µg/mL; MIC50 (Candida tropicalis [13]): 58.5 µg/mL; MIC50 (Sclerotinia sclerotiorum [14]): 23 µg/mL; MIC50 (Kluyveromyces marxianus [16]): 0.6 µg/mL; MIC50 (Aspergillus oryzae [17]): 43.4 µg/mL; MIC50 (Alternaria alternata [18]): 3.6 µg/mL
Cc1cc(O)no1 [HYMEXAZOL]	15.6	62.2	> 50	–	–	–	–	–	–	–	–	–	–	–	–	–	MIC50 (Paecilomyces variotii [1]): 57.2 µg/mL; MIC50 (Sclerotinia sclerotiorum [14]): 26.5 µg/mL; MIC50 [20]: 28.9 µg/mL; MIC50 (Aspergillus oryzae [17]): 45.7 µg/mL; MIC50 (Alternaria alternata [18]): 38.3 µg/mL
O=C1CCC(NNc2ccc(C(F)(F)F)cc2)N1 (racemic)	11.7	–	–	2	35	Non-Toxic	51	40	39	100	82	81	22	37	38	51	MIC50 (Paecilomyces variotii [1]): 2 µg/mL; MIC50 [20]: 3.4 µg/mL
CC(=O)N1CCN(c2ccc(OCC3COC(Cn4ccnc4)(c4ccc(Cl)cc4Cl)O3)cc2)CC1 (stereo not given) [KETOCONAZOLE]	–	–	1.5	–	–	–	–	–	–	–	–	–	–	–	–	–	MIC50 (Candida tropicalis [13]): 15.9 µg/mL; MIC50 (Kluyveromyces marxianus [16]): 9.6 µg/mL
O=C1CC[C@@H](C(=O)N/N=C/c2ccc([N+](=O)[O-])cc2)N1	59.1	–	–	30	14	Non-Toxic	42	9	0	100	20	40	30	0	38	22	–
O=C1CCC(NNc2cc(F)ccc2F)N1 (racemic)	24.5	21.1	–	72	73	Non-Toxic	62	28	0	95	17	29	25	0	65	20	MIC50 (Alternaria alternata [18]): 18.6 µg/mL
O=C1CC[C@@H](C(=O)N/N=C/c2ccccc2[N+](=O)[O-])N1	51.6	–	–	0	13	Non-Toxic	19	21	27	100	3	0	50	32	35	0	–

The next lines start with results.

MIC50 (Fusarium solani [2]) [µg/mL]	MIC50 (Penicillium ochrochloron [15]) [µg/mL]	MIC50 (Geotrichum candidum [19]) [µg/mL]	Compound	inhibition of growth at 100 µg/mL (Alternaria alternata [3]) [%]	inhibition of growth at 100 µg/mL (Penicillium ochrochloron [4]) [%]	Activity (HEK293)	inhibition of growth at 100 µg/mL (Candida tropicalis [5]) [%]	inhibition of growth at 100 µg/mL (Sclerotinia sclerotiorum [6]) [%]	inhibition of growth at 100 µg/mL (Botrytis cinerea) [%]	inhibition of growth at 100 µg/mL (Fusarium solani [7]) [%]	inhibition of growth at 100 µg/mL (Paecilomyces variotii [8]) [%]	inhibition of growth at 100 µg/mL [9] [%]	inhibition of growth at 100 µg/mL (Geotrichum candidum [10]) [%]	inhibition of growth at 100 µg/mL (Aspergillus oryzae [11]) [%]	inhibition of growth at 100 µg/mL (Kluyveromyces marxianus [12]) [%]	inhibition of growth at 100 µg/mL (Pichia kudriavzevii) [%]	further results
–	15.4	1.8	O=C1CC[C@@H](C(=O)N/N=C/c2ccc(Cl)cc2)N1	20	92	Non-Toxic	47	58	34	61	27	98	92	0	50	26	MIC50 [20]: 23.9 µg/mL
102	–	–	Cc1ccc(/C=N/NC(=O)[C@@H]2CCC(=O)N2)cc1	0	0	Non-Toxic	33	0	0	94	35	5	28	11	32	28	–
–	–	> 75	O=C1CC[C@@H](C(=O)N/N=C/c2ccccc2)N1	20	25	Non-Toxic	15	0	0	59	46	12	83	0	7	40	inhibition of growth at 50 µg/mL (Geotrichum candidum [21]): < 10%
> 75	–	> 75	O=C1CC[C@@H](C(=O)N/N=C/c2ccc(CO)o2)N1	42	28	Non-Toxic	38	0	0	72	45	0	88	0	28	66	inhibition of growth at 50 µg/mL (Geotrichum candidum [21]): < 10%
6.5	5.3	5.9	O=C1CC[C@@H](C(=O)N/N=C/c2ccc(Br)cc2)N1	0	77	Non-Toxic	92	37	40	100	0	72	100	43	2	0	MIC50 (Candida tropicalis [13]): > 75 µg/mL; MIC50 [20]: 53 µg/mL
–	–	62	O=C1CC[C@@H](C(=O)N/N=C/c2ccccc2O)N1	38	30	Non-Toxic	7	21	0	40	14	0	70	7	18	38	–
